The source of these data is patent publication US12161649B2, “Inhibitors of EGFR and methods of use thereof” (DANA-FARBER CANCER INSTITUTE, INC., priority 2018, dated 2024).

Like-named read-outs stand apart in the source and are kept apart here. A value given as a limit tells only on which side of the number the result lay.

The IC50 is the concentration needed to halve the response being measured.

In experiment [1] the target is T1, recombinant EGFR 790M/L858R kinase (Homo sapiens, UniProt P00533, L858R/T790M).
T1 construct: Constructs spanning residues 696-1022 of the human EGFR; GST (cleaved yes); made in house; host or cells: Sf9 insect cells
The experiment is described as follows: HTRF-based EGFR biochemical assay. As to the method:
EGFR biochemical assays are carried out using a homogeneous time-resolved fluorescence (HTRF) assay. The reaction mixtures contain biotin-Lck-peptide substrate, wild type, or mutant EGFR enzyme in reaction buffer. Enzyme concentrations are adjusted to accommodate varying kinase activity and ATP concentrations. Compounds of the present application are diluted into the assay mixture and IC50 values are determined using 12-point inhibition curves.
Constructs spanning residues 696-1022 of the human EGFR (including wild type and L858R, L858R/T790M, T790M, and T790M/V948R mutant sequences) were prepared in a GST-fusion format using the pTriEX system (Novagen) for expression in Sf9 insect cells essentially as described (Yun et al., PNAS 105, 2070-2075 (2008): Yun et al., Cancer Cell 11, 217-227 (2007)). EGFR kinase proteins were purified by glutathione-affinity chromatography followed by size-exclusion chromatography after cleavage with TEV or thrombin to remove the GST fusion partner following established procedures. (Yun 2008; Yun 2007).
EGFR biochemical assays were carried out using a homogeneous time-resolved fluorescence (HTRF) assay as described previously. The reaction mixtures contained 1 μM biotin-Lck-peptide substrate, wild type or mutant EGFR enzyme in reaction buffer (50 mM HEPES pH 7.1, 10 mM MgCl2, 0.01% BSA, 1 mM TCEP and 0.1 mM […]) at a final volume of 10 μL. Enzyme concentrations were adjusted to accommodate varying kinase activity and ATP concentrations (0.2-0.4 nM L858R/T790M; or 2-4 nM L858R, or 2-4 nM T790M, or 40 nM WT). All reactions were carried out at room temperature in white ProxiPlate™ 384-well Plus plates (PerkinElmer) and were quenched with 5 μL of 0.2 M EDTA at 60 min. Five μL per well of the detection reagent containing 2.5 ng PT66K (Cis-bio) and 0.05 μg SAXL (Prozyme) were added, and the plates were then incubated at room temperature for 1 hour and read with an EnVision plate reader. For IC50 determinations, compounds of the present application were diluted into assay mixture (final DMSO 0.5%), and IC50 values were determined by 12-point inhibition curves (from 50 to 0.000282 μM) in duplicate under the assay conditions as described above.
Background: In TR-FRET formats the signal depends on donor and acceptor labels being close together.

Another experiment addresses T2, T790M/L858R Ba/F3 cells (Homo sapiens, UniProt P00533, T790M/L858R, cells depend on it).
T2 construct: The constructs were shuttled into the retroviral vector JP1540 using the BD Creator® System (BD Biosciences)
The experiment is described as follows: Ba/F3 cell proliferation (MTS assay). It counts as cell-based, murine. The conditions noted are these: antiproliferative activity. As to the method: The EGFR mutant L858R, Del E746_A750, L858R/T790M, DelE746_A750/T790M, L858R/T790M/C797S and Del/T790M/C797S Ba/F3 cells were previously described (Zhou et al., Nature 462, (2009), 1070-1074). All cell lines were maintained in RPMI 1640 (Cellgro; Mediatech Inc., Herndon, CA) supplemented with 10% FBS 100 units/mL penicillin, 100 units/mL streptomycin, and 2 mM glutamine. L858R cells were maintained in ACL-4 media (Invitrogen, Carlsbad, CA) supplemented with 5% FBS, 100 units/mL penicillin, 100 units/mL streptomycin, and 2 mM glutamine. The EGFR 1941R mutation was introduced via site directed mutagenesis using the Quick Change Site-Directed Mutagenesis kit (Stratagene; La Jolla, CA) according to the manufacturer's instructions. All constructs were confirmed by DNA sequencing. The constructs were shuttled into the retroviral vector JP1540 using the BD Creator® System (BD Biosciences). Ba/F3 cells were infected with retrovirus and according to standard protocols, as described previously (Zhou 2009). Stable clones were obtained by selection in puromycin (2 μg/ml).
Growth and inhibition of growth was assessed by MTS assay and was performed according to previously established methods (Zhou 2009). The MTS assay is a colorimetric method for determining the number of viable cells that is based on the bioreduction of MTS by cells to a formazan product that is soluble in cell culture medium and can be detected spectrophotometrically. Ba/F3 cells of different EGFR genotypes were exposed to treatment and the number of cells used per experiment determined empirically and has been previously established (Zhou 2009). All experimental points were set up in six wells and all experiments were repeated at least three times. […] The curves were fitted using a non-linear regression model with a sigmoidal dose response.
In general terms: Tetrazolium dyes change colour on reduction, which living cells bring about.

Where [2] appears, read: absence of cetuximab, read-out: Ba/F3 cellular activity (EC50) T790M/L858R.
[3] abbreviates: read-out: Ba/F3 cellular activity (EC50) T790M/L858R + Cetuximab, presence of 1 μg/mL cetuximab.

T2 sequence (P00533 whole entry T790M/L858R): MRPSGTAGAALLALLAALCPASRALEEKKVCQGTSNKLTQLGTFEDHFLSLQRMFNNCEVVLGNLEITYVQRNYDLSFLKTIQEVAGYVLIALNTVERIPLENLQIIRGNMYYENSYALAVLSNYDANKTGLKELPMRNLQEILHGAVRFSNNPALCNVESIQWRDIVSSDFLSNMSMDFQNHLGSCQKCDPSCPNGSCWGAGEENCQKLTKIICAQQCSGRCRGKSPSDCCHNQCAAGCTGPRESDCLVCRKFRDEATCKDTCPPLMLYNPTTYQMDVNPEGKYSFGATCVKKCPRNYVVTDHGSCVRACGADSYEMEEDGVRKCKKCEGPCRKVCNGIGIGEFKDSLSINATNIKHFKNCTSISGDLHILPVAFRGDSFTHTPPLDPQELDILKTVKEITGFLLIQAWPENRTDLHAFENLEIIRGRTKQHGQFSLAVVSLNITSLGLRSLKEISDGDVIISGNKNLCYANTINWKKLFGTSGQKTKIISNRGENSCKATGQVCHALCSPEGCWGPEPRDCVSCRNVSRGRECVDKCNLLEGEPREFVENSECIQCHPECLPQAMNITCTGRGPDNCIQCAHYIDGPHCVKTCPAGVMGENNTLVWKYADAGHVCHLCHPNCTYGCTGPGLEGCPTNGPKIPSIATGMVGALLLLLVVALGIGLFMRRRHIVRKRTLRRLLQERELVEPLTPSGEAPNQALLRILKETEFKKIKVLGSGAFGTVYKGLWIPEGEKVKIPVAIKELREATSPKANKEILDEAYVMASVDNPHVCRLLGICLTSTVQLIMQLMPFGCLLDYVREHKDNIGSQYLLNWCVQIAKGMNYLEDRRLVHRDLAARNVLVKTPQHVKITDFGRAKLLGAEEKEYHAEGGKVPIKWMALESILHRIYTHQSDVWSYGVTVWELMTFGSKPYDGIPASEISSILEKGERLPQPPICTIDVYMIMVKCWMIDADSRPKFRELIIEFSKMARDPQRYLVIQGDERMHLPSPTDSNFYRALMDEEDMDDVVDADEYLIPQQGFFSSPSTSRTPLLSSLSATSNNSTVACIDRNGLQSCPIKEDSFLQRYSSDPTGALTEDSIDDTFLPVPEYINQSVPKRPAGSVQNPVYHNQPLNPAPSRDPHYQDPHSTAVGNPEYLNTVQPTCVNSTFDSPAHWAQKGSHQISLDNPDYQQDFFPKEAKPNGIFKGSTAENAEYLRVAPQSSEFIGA
T1 sequence (P00533 696-1022 T790M/L858R): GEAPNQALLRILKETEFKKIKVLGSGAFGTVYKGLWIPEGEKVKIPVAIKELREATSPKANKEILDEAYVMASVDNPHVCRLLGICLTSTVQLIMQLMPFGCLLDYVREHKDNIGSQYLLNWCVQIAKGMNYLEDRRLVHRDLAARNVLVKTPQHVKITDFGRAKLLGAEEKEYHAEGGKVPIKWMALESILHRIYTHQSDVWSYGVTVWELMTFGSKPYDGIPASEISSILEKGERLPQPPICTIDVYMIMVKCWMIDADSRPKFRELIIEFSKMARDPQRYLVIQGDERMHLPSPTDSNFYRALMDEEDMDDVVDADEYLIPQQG

With `CN1CCN(c2ccc(-c3ccc4c(c3)C(=O)N([C@H]3CNc5ccc(F)cc5N(Cc5ccccc5)C3=O)C4)cc2)CC1` [Compound I-11, (S)-1-benzyl-8-fluoro-3-(6-(4-(4-methylpiperazin-1-yl)phenyl)-1-oxoisoindolin-2-yl)-1,3,4,5-tetrahydro-2H-benzo[b][1,4]diazepin-2-one], the IC50 in experiment [1] was less than 250 nM. Also, the EC50 is more than 750 nM on T790M/L858R Ba/F3 cells (setting [2]) and less than 250 nM at T790M/L858R Ba/F3 cells (setting [3]).

In the case of `CN1CCN(c2ccc(C(=O)N[C@H]3CNc4ccc(F)cc4N(Cc4ccccc4)C3=O)cc2)CC1` [Compound I-1, (S)-N-(1-benzyl-8-fluoro-2-oxo-2,3,4,5-tetrahydro-1H-benzo[b][1,4]diazepin-3-yl)-4-(4-methylpiperazin-1-yl)benzamide], the IC50 in experiment [1] was more than 750 nM. For the same compound, the EC50 on T790M/L858R Ba/F3 cells (setting [2]) and on T790M/L858R Ba/F3 cells (setting [3]) was more than 750 nM in each case.

In the case of `COc1ccc(C2=CCNCC2)cc1C(=O)N[C@H]1CNc2ccc(F)cc2N(Cc2ccccc2)C1=O` [Compound I-7, (S)-N-(1-benzyl-8-fluoro-2-oxo-2,3,4,5-tetrahydro-1H-benzo[b][1,4]diazepin-3-yl)-2-methoxy-5-(1,2,3,6-tetrahydropyridin-4-yl)benzamide], the IC50 in experiment [1] was more than 750 nM. For the same compound, the EC50 at T790M/L858R Ba/F3 cells (setting [2]) and on T790M/L858R Ba/F3 cells (setting [3]) was more than 750 nM in each case.

With `CN1CCN(c2ccc(NC(=O)N[C@H]3CNc4ccc(F)cc4N(Cc4ccccc4)C3=O)cc2)CC1` [Compound I-2, (S)-1-(1-benzyl-8-fluoro-2-oxo-2,3,4,5-tetrahydro-1H-benzo[b][1,4]diazepin-3-yl)-3-(4-(4-methylpiperazin-1-yl)phenyl)urea], the IC50 in experiment [1] was more than 750 nM. The EC50 on T790M/L858R Ba/F3 cells (setting [2]) and on T790M/L858R Ba/F3 cells (setting [3]) was more than 750 nM in each case.

As to `O=C1[C@@H](N2Cc3ccc(F)cc3C2=O)CNc2ccc(F)cc2N1Cc1ccccc1` [Compound I-10, (S)-1-benzyl-8-fluoro-3-(6-fluoro-1-oxoisoindolin-2-yl)-1,3,4,5-tetrahydro-2H-benzo[b][1,4]diazepin-2-one], in experiment [1], the IC50 was less than 250 nM. Further, the results for the EC50 at T790M/L858R Ba/F3 cells (setting [2]) and at T790M/L858R Ba/F3 cells (setting [3]) were more than 750 nM and less than 250 nM, respectively.

For `COc1cc(N2CCOCC2)ccc1C(=O)N[C@H]1CNc2ccc(F)cc2N(Cc2ccccc2)C1=O` [Compound I-5, (S)-N-(1-benzyl-8-fluoro-2-oxo-2,3,4,5-tetrahydro-1H-benzo[b][1,4]diazepin-3-yl)-2-methoxy-4-morpholinobenzamide], in experiment [1], the IC50 is more than 750 nM. Besides, the EC50 on T790M/L858R Ba/F3 cells (setting [2]) and at T790M/L858R Ba/F3 cells (setting [3]) was more than 750 nM each time.

Turning to `CN1CCN(c2cccc(C(=O)N[C@H]3CNc4ccc(F)cc4N(Cc4ccccc4)C3=O)c2)CC1` [Compound I-4, (S)-N-(1-benzyl-8-fluoro-2-oxo-2,3,4,5-tetrahydro-1H-benzo[b][1,4]diazepin-3-yl)-3-(4-methylpiperazin-1-yl)benzamide], the IC50 in experiment [1] was more than 750 nM. The EC50 on T790M/L858R Ba/F3 cells (setting [2]) and on T790M/L858R Ba/F3 cells (setting [3]) was more than 750 nM in each case.

As to `CN1CCN(c2ccc3c(c2)C(=O)N([C@H]2CNc4ccc(F)cc4N(Cc4ccccc4)C2=O)C3)CC1` [Compound I-13, (S)-1-benzyl-8-fluoro-3-(6-(4-methylpiperazin-1-yl)-1-oxoisoindolin-2-yl)-1,3,4,5-tetrahydro-2H-benzo[b][1,4]diazepin-2-one], the IC50 in experiment [1] is more than 750 nM. Moreover, the EC50 at T790M/L858R Ba/F3 cells (setting [2]) and at T790M/L858R Ba/F3 cells (setting [3]) was more than 750 nM in each case.

On to `CN1CCN(c2ccnc(C(=O)N[C@H]3CNc4ccc(F)cc4N(Cc4ccccc4)C3=O)c2)CC1` [Compound I-6, (S)-N-(1-benzyl-8-fluoro-2-oxo-2,3,4,5-tetrahydro-1H-benzo[b][1,4]diazepin-3-yl)-4-(4-methylpiperazin-1-yl)picolinamide], for which, in experiment [1], the IC50 was more than 750 nM. For the same compound, the EC50 on T790M/L858R Ba/F3 cells (setting [2]) and at T790M/L858R Ba/F3 cells (setting [3]) was more than 750 nM each time.

In the case of `O=C(Cc1ccc(-n2cnnn2)cc1)N[C@H]1CNc2ccc(F)cc2N(Cc2ccccc2)C1=O` [Compound I-9, (S)-2-(4-(1H-tetrazol-1-yl)phenyl)-N-(1-benzyl-8-fluoro-2-oxo-2,3,4,5-tetrahydro-1H-benzo[b][1,4]diazepin-3-yl)acetamide], the IC50 in experiment [1] was more than 750 nM. Besides, the EC50 on T790M/L858R Ba/F3 cells (setting [2]) and on T790M/L858R Ba/F3 cells (setting [3]) was more than 750 nM throughout.

On to `O=C(Cc1ccc(N2CCOCC2)cc1)N[C@H]1CNc2ccc(F)cc2N(Cc2ccccc2)C1=O` [Compound I-3, (S)-N-(1-benzyl-8-fluoro-2-oxo-2,3,4,5-tetrahydro-1H-benzo[b][1,4]diazepin-3-yl)-2-(4-morpholinophenyl)acetamide], for which, in experiment [1], the IC50 is more than 750 nM. Also, the EC50 on T790M/L858R Ba/F3 cells (setting [2]) and at T790M/L858R Ba/F3 cells (setting [3]) was more than 750 nM in each case.

As for `O=C(N[C@H]1CNc2ccc(F)cc2N(Cc2ccccc2)C1=O)c1ccc(N2CCOCC2)cn1` [Compound I-8, (S)-N-(1-Benzyl-8-fluoro-2-oxo-2,3,4,5-tetrahydro-1H-benzo[b][1,4]diazepin-3-yl)-5-morpholinopicolinamide], in experiment [1], the IC50 was more than 750 nM. Also, the EC50 on T790M/L858R Ba/F3 cells (setting [2]) and on T790M/L858R Ba/F3 cells (setting [3]) was more than 750 nM throughout.

Consider `CN1CCN(c2ccc(-c3ccc4c(c3)CN([C@H]3CNc5ccc(F)cc5N(Cc5ccccc5)C3=O)C4=O)cc2)CC1` [Compound I-14, (S)-1-benzyl-8-fluoro-3-(5-(4-(4-methylpiperazin-1-yl)phenyl)-1-oxoisoindolin-2-yl)-1,3,4,5-tetrahydro-2H-benzo[b][1,4]diazepin-2-one], for which the IC50 in experiment [1] is less than 250 nM. Besides, the EC50 on T790M/L858R Ba/F3 cells (setting [2]) is more than 750 nM; on T790M/L858R Ba/F3 cells (setting [3]), less than 250 nM.
